Test results from patent publication US20100159496A1, “EVALUATION METHOD FOR PHOTOSYNTHESIS SAMPLE, EVALUATION SYSTEM FOR PHOTOSYNTHESIS SAMPLE, AND EVALUATION PROGRAM FOR PHOTOSYNTHESIS SAMPLE” (HAMAMATSU PHOTONICS K.K., priority 2006, published 2010).

System: green algae
Test: Delayed luminescence of green algae in different redox states (first/second excitation light, waiting time), integration values
Format: cell-based, Pseudokircheneriella subcapitata
Conditions: for percentage (% oQ) of the oxidized plastoquinone: DBMIB 322 μg/L (FIG. 43)
Excerpt: In determining the relationship between the waiting time and the temporal variation of delayed luminescence, first, white light of 500 μmol·m−2·s−1 was illuminated for 10 seconds onto the measurement sample as the first excitation light for saturating photosynthetic electron transport (first illumination condition). Thereafter, a step of not illuminating light onto the measurement sample (referred to hereinafter as “waiting”) was provided and then red light of 50 μmol·m−2·s−1 was illuminated for 2 seconds as the second excitation light. The second excitation light can make delayed luminescence be emitted while hardly changing the redox state of the photosynthetic sample. Such a process is performed repeatedly with the waiting being changed to 0, 2, 10, 30, and 60 seconds. In addition, measurement is also made for a case where the illumination of the first excitation light and waiting are not executed and just the illumination of the second excitation light is performed, that is, for the case where the photosynthetic electron transport is not saturated.
In the following, a case of computing an integration value for each of an integration range (measurement time period) of 0.1 to 0.5 seconds of time after excitation, an integration range of 0.6 to 10 seconds after excitation, and an integration range of 10.1 seconds to 50 seconds after excitation shall be described. Setting of the integration ranges is not restricted to the above. The number of integration ranges may any number as long as it is no less than 1. In a case where a plurality of integration ranges are set up, the respective integration ranges may be made equal or not equal in time width. Furthermore, the integration ranges may not only be mutually set apart by a predetermined time as in the present embodiment but integration ranges may be set so as to be adjacent each other (for example, an integration range of 0.1 to 0.5 seconds of time after excitation and an integration range of 0.5 seconds to 10 seconds of time after excitation may be set up) and integration ranges may be set so as to overlap with each other (for example, an integration range of 0.1 to 0.5 seconds of time after excitation and an integration range of 0.4 seconds to 10 seconds of time after excitation may be set up).
In each graph of FIG. 29, the abscissa expresses the measurement condition and the ordinate expresses the integration value (counts) of the delayed luminescence intensity. In the following, the integration value in the integration range of 0.1 to 0.5 seconds of time after excitation, the integration value in the integration range of 0.6 to 10 seconds after excitation, and the integration value in the integration range of 10.1 seconds to 50 seconds after excitation shall be referred to respectively as integration value 1, integration value 2, and integration value 3. FIGS. 29A, 29B, and 29C are graphs respectively of the integration value 1, integration value 2, and integration value 3.
First, a method for computing an evaluation value for evaluating the electron accumulation state of the PSII of the photosynthetic sample shall be described. As one such type of evaluation value, there is, for example, a PSII electron accumulation change (en), which indicates how the electron accumulation in the PSII has changed. This value ell can be determined as: (integration value 1 of the evaluation sample)/(integration value 1 of the standard sample)×100. The PSII electron accumulation change (eII) can be computed for the respective conditions of non-saturation, 0-second waiting time, 10-second waiting time, and 60-second waiting time.
As mentioned above, the transient increase of the integration value 1 in the 0-second waiting time reflects increase of the electron accumulation in the PSII due to the takeout of electrons from the PSII becoming rate-limiting. […]

[1] = all conditions (non-saturation, 0-, 10-, 60-second waiting time), DCMU 12 ug/L, Ant-A 0.55 mg/L

Compound: CCCCCC[C@H]1C(=O)O[C@H](C)[C@H](NC(=O)c2cccc(NC=O)c2O)C(=O)O[C@@H](C)[C@@H]1OC(=O)CC(C)C [Ant-A, Antimycin A]
- integration value 1 (0.1 to 0.5 seconds after excitation) (10-second waiting time, Ant-A 0.55 mg/L): increased in the same manner as in the 0-second waiting time case
- cyclic electron transport (cI) from the PSI (10-second waiting time, Ant-A 0.55 mg/L (FIG. 44)): −12
- integration value 2 (0.6 to 10 seconds after excitation) compared with standard sample [1]: less than those of the standard sample
- integration value 3 (10.1 to 50 seconds after excitation) compared with standard sample [1]: less than those of the standard sample
- PSI electron accumulation change (eI) (non-saturation case, Ant-A 0.55 mg/L, integration value 3 of evaluation sample/standard sample×100 (FIG. 44)): 89
- integration value 1 (0.1 to 0.5 seconds after excitation) compared with standard sample (non-saturation, 0-second and 60-second waiting time, Ant-A 0.55 mg/L): a large difference was not seen

Compound: CC1=C(Br)C(=O)C(C(C)C)=C(Br)C1=O [DBMIB, 2,5-dibromo-6-isopropyl-3-methyl-1,4-benzoquinone]
- integration value 2 (0.6 to 10 seconds after excitation) compared with standard sample (0-second waiting time, DBMIB 322 μg/L): a large difference is not seen
- percentage (% oQ) of the oxidized plastoquinone (10-second waiting time): 4
- increase (increment) of integration value 3 at the 10-second waiting time compared with standard sample (10-second waiting time, DBMIB 322 μg/L, Ant-A 0.55 mg/L): lower than that of the standard sample
- percentage (% oQ) of the oxidized plastoquinone (60-second waiting time): 22
- change (vQ) of redox reaction magnitude sQ (DBMIB 322 μg/L, sQ of evaluation sample/sQ of standard sample (FIG. 43)): 30
- integration value 1 (0.1 to 0.5 seconds after excitation) compared with standard sample (all conditions, DBMIB 322 μg/L): greater than those of the standard sample
- integration value 3 (10.1 to 50 seconds after excitation) compared with standard sample (non-saturation, 0-second and 60-second waiting time, DBMIB 322 μg/L): a large difference was not seen
- integration value 2 (0.6 to 10 seconds after excitation) compared with standard sample (non-saturation, 10-second and 60-second waiting time, DBMIB 322 μg/L): lower than that of the standard sample

Compound: CN(C)C(=O)Nc1ccc(Cl)c(Cl)c1 [DCMU, 3-(3,4-dichlorophenyl)-1,1-dimethyl-urea]
- integration value 1 (0.1 to 0.5 seconds after excitation) compared with standard sample (0-second waiting time, DCMU 12 ug/L): a significant difference was not seen
- PSII electron takeout change (vII) (DCMU 12 ug/L, tII of evaluation sample/tII of standard sample×100 (FIG. 42)): negative
- integration value 2 (0.6 to 10 seconds after excitation) compared with standard sample [1]: less than those of the standard sample
- integration value 3 (10.1 to 50 seconds after excitation) compared with standard sample [1]: less than those of the standard sample
- PSII electron accumulation change (eII) (non-saturation state, DCMU 12 ug/L, integration value 1 of evaluation sample/standard sample×100 (FIG. 42)): 188
- integration value 1 (0.1 to 0.5 seconds after excitation) compared with standard sample (non-saturation, 10-second and 60-second waiting time, DCMU 12 ug/L): nearly twice the values of the standard sample
